Values of other authors in PMC11345841, “Exploring 2-Sulfonylpyrimidine Warheads as Acrylamide Surrogates for Targeted Covalent Inhibition: A BTK Story” (Journal of Medicinal Chemistry, 2024).
Like-named read-outs stand apart in the source and are kept apart here.

Test system: 468 human kinases
Details: cited from earlier work; for %Control: @1000nM, ref Buhimschi et al. 2018

C=CC(=O)N1CCC[C@@H](n2nc(-c3ccc(Oc4ccccc4)cc3)c3c(N)ncnc32)C1 [Compound 1g, Ibrutinib, reference compound]
number of kinases with ≥90 inhibition belonging to the TK family (including BTK) (1 μM): 36 kinases | number of kinases with ≥90 inhibition out of 468 (1 μM): 39 kinases | %Control (ABL1(E255K)-phosphorylated): 71% | %Control (ABL1(F317I)-nonphosphorylated): 30% | %Control (ABL1(F317L)-nonphosphorylated): 25% | %Control (ABL1(F317L)-phosphorylated): 49% | %Control (ABL1(H396P)-nonphosphorylated): 18% | %Control (ABL1(Q252H)-nonphosphorylated): 6.4% | %Control (ABL1(Q252H)-phosphorylated): 67% | %Control (ABL1(T315I)-nonphosphorylated): 100% | %Control (ABL1-nonphosphorylated): 9% | %Control (ABL1-phosphorylated): 69% | %Control (ABL2): 43% | %Control (ALK(C1156Y)): 91% | %Control (ALK(L1196M)): 96% | %Control (BMX): 38% | %Control (BRK): 1.4% | %Control (BTK): 0% | %Control (CSK): 2.4% | %Control (DDR2): 100% | %Control (EGFR(E746-A750del)): 5.1% | %Control (EGFR(G719C)): 0.35% | %Control (EGFR(G719S)): 0.45% | %Control (EGFR(L747-E749del, A750P)): 0.3% | %Control (EGFR(L747-S752del, P753S)): 12% | %Control (EGFR(L747-T751del,Sins)): 1.4% | %Control (EGFR(L858R)): 1.4% | %Control (EGFR(L858R,T790M)): 6.9% | %Control (EGFR(L861Q)): 0.1% | %Control (EGFR(S752-I759del)): 0% | %Control (EGFR(T790M)): 0.15% | %Control (EGFR): 0% | %Control (EPHA2): 96% | %Control (EPHA5): 100% | %Control (EPHA7): 100% | %Control (EPHA8): 78% | %Control (EPHB2): 100% | %Control (EPHB3): 89% | %Control (EPHB4): 100% | %Control (EPHB6): 8.6% | %Control (ERBB2): 0% | %Control (ERBB3): 0% | %Control (FAK): 93% | %Control (FER): 95% | %Control (FES): 100% | %Control (FGFR1): 42% | %Control (FGFR2): 42% | %Control (FGFR3(G697C)): 35% | %Control (FGFR3): 45% | %Control (FGFR4): 100% | %Control (FGR): 10% | %Control (FLT3(D835H)): 18% | %Control (FLT3(D835V)): 1.9% | %Control (FLT3(D835Y)): 44% | %Control (FLT3(K663Q)): 38% | %Control (FLT3(N841I)): 31% | %Control (FLT3(R834Q)): 54% | %Control (FLT3-autoinhibited): 94% | %Control (FLT3): 26% | %Control (FLT4): 38% | %Control (FRK): 11% | %Control (FYN): 5.3% | %Control (HCK): 0.3% | %Control (IGF1R): 100% | %Control (INSR): 87% | %Control (INSRR): 96% | %Control (ITK): 6.8% | %Control (JAK1(JH1domain-catalytic)): 100% | %Control (JAK1(JH2domain-pseudokinase)): 91% | %Control (JAK2(JH1domain-catalytic)): 87% | %Control (JAK3(JH1domain-catalytic)): 0% | %Control (KIT(A829P)): 21% | %Control (KIT(D816H)): 78% | %Control (KIT(L576P)): 42% | %Control (KIT(V559D)): 31% | %Control (KIT(V559D,T670I)): 94% | %Control (KIT(V559D,V654A)): 91% | %Control (KIT): 57% | %Control (LCK): 0.2% | %Control (LYN): 9.5% | %Control (MERTK): 74% | %Control (MET(M1250T)): 56% | %Control (MET(Y1235D)): 87% | %Control (PDGFRA): 48% | %Control (PDGFRB): 35% | %Control (RET(M918T)): 14% | %Control (RET(V804M)): 72% | %Control (RET): 9.3% | %Control (ROS1): 97% | %Control (SRC): 3.2% | %Control (SYK): 91% | %Control (TEC): 1.9% | %Control (TIE1): 61% | %Control (TIE2): 58% | %Control (TNK1): 23% | %Control (TNK2): 35% | %Control (TRKB): 82% | %Control (TXK): 3.8% | %Control (TYK2(JH1domain-catalytic)): 89% | %Control (TYRO3): 96% | %Control (YES): 2.6%
